In the C3SDB collision cross section collection:
Where a name gives a salt, the structure may show the parent alone.

Conditions: instrument: TW, calibrated with polyalanine and drug standards

Compound | collision cross section (N2) ([M+H]+) [Å²] | also measured
CC1=CC(=O)C2=C(C)CC[C@@H]3[C@H](OC(=O)[C@H]3C)[C@@H]12 [LEUCODIN] | 154.2 | 
N[C@@H](Cc1ccc(O)c(O)c1)C(=O)O [LEVODOPA] | 145.4 | 
CC(C)(C#N)O[C@@H]1O[C@H](CO)[C@@H](O)[C@H](O)[C@H]1O [LINAMARIN] |  | collision cross section (N2) ([M+Na]+): 157.3 Å²
CCOC(=O)N1CCC(=C2c3ccc(Cl)cc3CCc3cccnc32)CC1 [LORATADINE] | 185.8 | 
CC[C@H](C)C(=O)O[C@H]1C[C@@H](C)C=C2C=C[C@H](C)[C@H](CC[C@@H]3C[C@@H](O)CC(=O)O3)[C@H]21 [LOVASTATIN] |  | collision cross section (N2) ([M+Na]+): 202 Å²
C=C1C[C@H]2[C@@H]3C=C(C)C4=CC(=O)CC[C@]4(C)[C@H]3CC[C@]2(C)[C@@]1(OC(C)=O)C(C)=O [MELENGESTROL ACETATE] | 198.2 | 
OC[C@H]1O[C@@](CO)(O[C@H]2O[C@H](CO)[C@@H](O)[C@H](O)[C@H]2O)[C@@H](O[C@H]2O[C@H](CO)[C@@H](O)[C@H](O)[C@H]2O)[C@@H]1O [MELEZITOSE] |  | collision cross section (N2) ([M+Na]+): 199.2 Å²
[O-][n+]1cccc(CO)c1 [MEPIROXOL] | 120.4 | 
Nc1ccc(O)c(C(=O)O)c1 [MESALAMINE] | 134.7 | 
CN1C[C@H](CNC(=O)OCc2ccccc2)C[C@@H]2c3cccc4c3c(cn4C)C[C@H]21 [METERGOLINE] | 197.6 | 
C1N2CN3CN1CN(C2)C3 [METHENAMINE] | 126.8 | 
COc1cc(C)c2c(=O)cc(-c3ccccc3)oc2c1 [METHOXYVONE] | 156.5 | 
COC(=O)CC[C@@H](C)[C@H]1CC[C@H]2[C@@H]3CC[C@@H]4C[C@H](O)CC[C@]4(C)[C@H]3C[C@H](O)[C@]12C [METHYL DEOXYCHOLATE] |  | collision cross section (N2) ([M+Na]+): 199.1 Å²
Cc1cc(=O)[nH]c(=S)[nH]1 [METHYLTHIOURACIL] | 123.7 | 
COc1cc(OC)c(C(C)=O)c(O)c1C [METHYLXANTHOXYLIN] | 140.2 | 
Cc1cc2c(cc1S(N)(=O)=O)S(=O)(=O)CCC2 [METICRANE] | 159.4 | 
Cc1ccccc1N1C(=O)c2cc(S(N)(=O)=O)c(Cl)cc2NC1C (stereo unspecified) [METOLAZONE] | 181.2 | 
Cc1ncc([N+](=O)[O-])n1CCO [METRONIDAZOLE] | 130.4 | 
COC(=O)C[C@H]1C(C)(C)C(=O)[C@@H]2CC3=C4CC(=O)O[C@@H](c5ccoc5)[C@]4(C)CC[C@@H]3[C@@]1(C)C2=O [MEXICANOLIDE] | 203.9 | 
COc1c(C)c2c(c(O)c1C/C=C(\C)CCC(=O)OCCN1CCOCC1)C(=O)OC2 [MYCOPHENOLATE MOFETIL] | 197.3 | 
COc1c(C)c2c(c(O)c1C/C=C(\C)CCC(=O)O)C(=O)OC2 [MYCOPHENOLIC ACID] | 165.4 | 
CC(=O)N[C@H]1C(O)O[C@H](CO)[C@@H](O)[C@@H]1O[C@H](C)C(=O)O (stereo partly specified) [N-ACETYLMURAMIC ACID] |  | collision cross section (N2) ([M+Na]+): 164.8 Å²
CC(=O)N[C@H]1[C@H]([C@H](O)[C@H](O)CO)O[C@](O)(C(=O)O)C[C@@H]1O [N-ACETYLNEURAMIC ACID] |  | collision cross section (N2) ([M+Na]+): 166.6 Å²
CNc1ccccc1C(=O)O [N-METHYLANTHRANILIC ACID] | 125.9 | 

Compound | collision cross section (N2) ([M+H]+) [Å²] | also measured
CC(C)(C)NCC(O)COc1cccc2c1C[C@H](O)[C@H](O)C2 (stereo partly specified) [NADOLOL] | 171.8 | 
CCn1cc(C(=O)O)c(=O)c2ccc(C)nc21 [NALIDIXIC ACID] | 145.3 | 
NC(=O)c1cccnc1 [NIACINAMIDE] | 121.7 | 
O=C(N/N=C/c1ccc([N+](=O)[O-])o1)c1ccc(O)cc1 [NIFUROXAZIDE] | 154.4 | 
Cc1ncc(CNC(=O)N(CCCl)N=O)c(N)n1 [NIMUSTINE] | 158.9 | 
CCOC(=O)C1=C(C)NC(C)=C(C(=O)OC)C1c1cccc([N+](=O)[O-])c1 (stereo unspecified) [NITRENDIPINE] | 181.9 | 
NC(=O)N/N=C/c1ccc([N+](=O)[O-])o1 [NITROFURAZONE] | 138.6 | 
CCCCCCCCCc1ccc(OCCOCCOCCOCCOCCOCCOCCOCCOCCO)cc1 [NONOXYNOL-9] | 245.8 | 
C#C[C@]1(OC(C)=O)CC[C@H]2[C@@H]3CCC4=CC(=O)CC[C@@H]4[C@H]3CC[C@@]21C [NORETHINDRONE ACETATE] | 186.3 | 
C#C[C@]1(O)CC[C@H]2[C@@H]3CCC4=CC(=O)CC[C@@H]4[C@H]3CC[C@@]21C [NORETHINDRONE] | 174.4 | 
CC1COc2c(N3CCN(C)CC3)c(F)cc3c(=O)c(C(=O)O)cn1c23 (stereo unspecified) [OFLOXACIN] | 188.5 | 
C[C@@H]1CN(c2c(F)c(F)c3c(=O)c(C(=O)O)cn(C4CC4)c3c2F)C[C@H](C)N1 [ORBIFLOXACIN] | 196.7 | 
CCCCCCCCCCC[C@@H](C[C@@H]1OC(=O)[C@H]1CCCCCC)OC(=O)[C@H](CC(C)C)NC=O [ORLISTAT] | 241.2 | 
Cc1ncc([N+](=O)[O-])n1CC(O)CCl (stereo unspecified) [ORNIDAZOLE] | 141.7 | 
Cc1cc(O)cc(O)c1C(=O)O [ORSELLINIC ACID] | 129.1 | 
C[C@@H]1O[C@@H](O[C@H]2C[C@@H](O)[C@]3(CO)[C@H]4[C@H](O)C[C@]5(C)[C@@H](C6=CC(=O)OC6)CC[C@]5(O)[C@@H]4CC[C@]3(O)C2)[C@H](O)[C@H](O)[C@H]1O [OUABAIN] | 234 | 
O=C(O)CCc1nc(-c2ccccc2)c(-c2ccccc2)o1 [OXAPROZIN] | 169.7 | 
NC(=O)N1c2ccccc2CC(=O)c2ccccc21 [OXCARBAZEPINE] | 152.7 | 
CNCC(O)c1ccc(O)cc1 (stereo unspecified) [OXEDRINE] |  | collision cross section (N2) ([M+H-H2O]+): 132 Å²
CCN(CC)CCOCCOC(=O)C(CC)(CC)c1ccccc1 [OXELAIDIN CITRATE] | 178.3 | 
COC(=O)Nc1nc2ccc(S(=O)c3ccccc3)cc2[nH]1 (stereo unspecified) [OXFENDAZOLE] | 174.1 | 
CCCOc1ccc2nc(NC(=O)OC)[nH]c2c1 [OXIBENDAZOLE] | 157.5 | 
CCn1cc(C(=O)O)c(=O)c2cc3c(cc21)OCO3 [OXOLINIC ACID] | 149.1 | 
CC(=O)OC1C(=O)C2(C)C(O)CC3OCC3(OC(C)=O)C2C(OC(=O)c2ccccc2)C2(O)CC(OC(=O)C(O)C(NC(=O)c3ccccc3)c3ccccc3)C(C)=C1C2(C)C (stereo unspecified) [PACLITAXEL] | 278.9 | 

Compound | collision cross section (N2) ([M+H]+) [Å²] | also measured
COc1ccc(-c2cc(=O)c3c(O)c(OC)c(O[C@@H]4O[C@H](CO[C@@H]5O[C@@H](C)[C@H](O)[C@@H](O)[C@H]5O)[C@@H](O)[C@H](O)[C@H]4O)cc3o2)cc1 [PECTOLINARIN] | 236.5 | 
N#Cc1ccc2c(c1)N(CCCN1CCC(O)CC1)c1ccccc1S2 [PERICIAZINE] | 186.6 | 
CO[C@H]1[C@H](O)[C@H](O[C@H]2CC[C@@]3(C=O)[C@H](CC[C@@H]4[C@@H]3CC[C@]3(C)[C@@H](C5=CC(=O)OC5)CC[C@]43O)C2)O[C@@H](C)[C@@H]1O [PERUVOSIDE] | 239.4 | 
NC(=O)NC(=O)Cc1ccccc1 [PHENACEMIDE] | 128.3 | 
O=C1c2ccccc2C(=O)C1c1ccccc1 [PHENINDIONE] | 145.9 | 
OCCc1ccccc1 [PHENYLETHYL ALCOHOL] | 121.2 | 
O=C(CCc1ccc(O)cc1)c1c(O)cc(O)cc1O [PHLORETIN] | 160.7 | 
O=C(CCc1ccc(O)cc1)c1c(O)cc(O)cc1O[C@@H]1O[C@H](CO)[C@@H](O)[C@H](O)[C@H]1O [PHLORIDZIN] |  | collision cross section (N2) ([M+Na]+): 194.4 Å²
O=C(O)c1ccccc1C(=O)Nc1ccc(S(=O)(=O)Nc2nccs2)cc1 [PHTHALYLSULFATHIAZOLE] | 194.9 | 
CC1=C(C/C=C(\C)CCC[C@H](C)CCC[C@H](C)CCCC(C)C)C(=O)c2ccccc2C1=O [PHYTONADIONE] | 220 | 
CC(C)NCC(O)COc1cccc2[nH]ccc12 (stereo unspecified) [PINDOLOL] | 157.6 | 
NC(=O)C1(N2CCCCC2)CCN(CCCC(=O)c2ccc(F)cc2)CC1 [PIPAMPERONE] | 192.6 | 
O=C(O)c1ccc2c(c1)OCO2 [PIPERONYLIC ACID] | 124.5 | 
COc1cc(/C=C/C(=O)N2CCC=CC2=O)cc(OC)c1OC [PIPLARTINE] | 176.1 | 
C[C@]12C=CC(=O)C=C1CC[C@@H]1[C@@H]2[C@@H](O)C[C@@]2(C)[C@H]1CC[C@]2(O)C(=O)CO [PREDNISOLONE] | 183.7 | 
CC(C)=CCOc1cc2oc(=O)ccc2cc1O [PRENYLETIN] | 153.5 | 
O=c1cc(-c2ccccc2)oc2cccc(O)c12 [PRIMULETIN] | 147.3 | 
CC(=O)[C@H]1CC[C@H]2[C@@H]3CCC4=CC(=O)CC[C@]4(C)[C@H]3CC[C@]12C [PROGESTERONE] | 177.8 | 
CCCN(CCC)C(=O)C(CCC(=O)O)NC(=O)c1ccccc1 (stereo unspecified) [PROGLUMIDE] | 181.1 | 
CC(C)NCC(O)COc1cccc2ccccc12 (stereo unspecified) [PROPRANOLOL] | 161.5 | 
C=Cc1c(C)c2cc3[nH]c(cc4nc(cc5nc(cc1[nH]2)C(C)=C5CCC(=O)O)C(CCC(=O)O)=C4C)c(C)c3C=C [PROTOPORPHYRIN IX] | 238.8 | 
CC1=CCc2c(cc3oc(C)cc(=O)c3c2O)OC1 [PTAEROXYLIN] | 153.5 | 
CC[C@@]1(O)C[C@H](O[C@H]2C[C@H](N(C)C)[C@H](O)[C@H](C)O2)c2c(cc3c(c2O)C(=O)c2c(O)ccc(O)c2C3=O)[C@H]1C(=O)OC [PYRROMYCIN] | 233.9 | 
